Data published in patent publication US11234979B2, “Heteroaryl compounds as muscarinic M1 receptor positive allosteric modulators” (SUVEN LIFE SCIENCES LIMITED, priority 2017, dated 2022).

biological target: T1, recombinant human Muscarinic M1 receptor (Homo sapiens, UniProt P11229); assay: Allosteric potency EC50 for Muscarinic M1 receptor, CHO pCRE-Luc reporter assay with EC20 of acetylcholine; type: cell-based; conditions: CHO cells, in presence of EC20 of acetylcholine, 4 hours
T1 construct: expressed in transfected cells
T1 sequence (P11229 1-460): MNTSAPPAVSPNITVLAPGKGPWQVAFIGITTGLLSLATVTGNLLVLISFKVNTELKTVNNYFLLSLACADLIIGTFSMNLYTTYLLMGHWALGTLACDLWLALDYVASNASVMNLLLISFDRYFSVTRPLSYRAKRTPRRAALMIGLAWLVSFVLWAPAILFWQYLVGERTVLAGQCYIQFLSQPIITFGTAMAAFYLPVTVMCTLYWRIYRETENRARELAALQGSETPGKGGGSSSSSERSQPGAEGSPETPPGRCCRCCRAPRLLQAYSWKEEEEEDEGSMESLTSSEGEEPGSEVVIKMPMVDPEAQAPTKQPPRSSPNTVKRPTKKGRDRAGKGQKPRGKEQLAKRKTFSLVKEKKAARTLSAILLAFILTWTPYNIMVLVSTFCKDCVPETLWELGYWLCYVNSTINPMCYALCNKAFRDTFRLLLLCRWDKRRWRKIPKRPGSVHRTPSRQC
Procedure: Determination of Allosteric Potency EC50 Values for Muscarinic M1 Receptor:
A stable CHO cell line expressing recombinant human Muscarinic M1 receptor and pCRE-Luc reporter system was used for cell-based assay. The assay offers a non-radioactive based approach to determine binding of a compound to GPCRs. In this specific assay, the level of intracellular cyclic AMP which is modulated by activation or inhibition of the receptor is measured. The recombinant cells harbor luciferase reporter gene under the control of cAMP response element.
The above cells were grown in 96 well clear bottom white plates in Hams F12 medium containing 10% fetal bovine serum (FBS). Prior to the addition of compounds or standard agonist, cells were serum starved overnight. Increasing concentrations of test compounds were added along with EC20 of acetylcholine in OptiMEM medium to the cells. The incubation was continued at 37° C. in CO2 incubator for 4 hours. Medium was removed and cells were washed with phosphate buffered saline. The cells were lysed and luciferase activity was measured in a Luminometer. Luminescence counts in each concentrations of test item were normalized to the acetylcholine induced maximum response and the data was analyzed using Graphpad software. EC50 values of the compounds were defined as the concentration required in stimulating the luciferase activity by 50% in presence of EC20 of acetylcholine.

| EC50 | Compound |
| --- | --- |
| 1.18 µM | O=C(N[C@H]1CCCC[C@@H]1O)c1cc(Cc2ccc(F)cc2Br)c2cccnn12 [Example 24, N-(cis-1S,2S-2-Hydroxycyclohexyl)-5-(2-bromo-4-fluorobenzyl)-pyrrolo[1,2-b]pyridazine-7-carboxamide] |
| 1.22 µM | COc1ccc(Cc2cc(C(=O)N[C@H]3CCCC[C@@H]3O)n3ncccc23)cc1F [Example 10, N-(cis-1S,2S-2-Hydroxycyclohexyl)-5-(3-fluoro-4-methoxybenzyl)-pyrrolo[1,2-b]pyridazine-7-carboxamide] |
| 1.47 µM | O=C(N[C@H]1CCCC[C@@H]1O)c1cc(Cc2ccc(Br)cc2)c2cccnn12 [Example 1, N-(cis-1S,2S-2-Hydroxycyclohexyl)-5-(4-bromobenzyl)-pyrrolo[1,2-b]pyridazine-7-carboxamide] |
| 2.13 µM | O=C(N[C@H]1CCCC[C@@H]1O)c1cc(Cc2ccc(Br)nc2)c2cccnn12 [Example 5, N-(cis-1S,2S-2-Hydroxycyclohexyl)-5-(2-bromo-pyridin-5-ylmethyl)-pyrrolo[1,2-b]pyridazine-7-carboxamide] |
| 2.1 µM | O=C(N[C@H]1CCCC[C@@H]1O)c1cc(Cc2cccc(F)c2)c2cccnn12 [Example 19, N-(cis-1S,2S-2-Hydroxycyclohexyl)-5-(3-fluorobenzyl)-pyrrolo[1,2-b]pyridazine-7-carboxamide] |
| 2.77 µM | O=C(N[C@H]1CCCC[C@@H]1O)c1cc(Cc2ccc(Cl)nc2)c2cccnn12 [Example 16, N-(cis-1S,2S-2-Hydroxycyclohexyl)-5-(2-chloro-pyridin-5-ylmethyl)-pyrrolo[1,2-b]pyridazine-7-carboxamide] |
| 1.21 µM | Cn1cc(-c2ccc(Cc3cc(C(=O)NC4CCOCC4O)c4c(F)cccn34)cc2)cn1 (stereo not shown) [Example 49, N-(3-Hydroxytetrahydropyran-4-yl)-3-(4-(1-methyl-1H-pyrazol-4-yl)-benzyl)-8-fluoroindolizine-1-carboxamide] |
| 2.53 µM | Cn1cc(-c2ccc(Cc3cc(C(=O)NC4CCOCC4)c4c(F)cccn34)cc2)cn1 [Example 50, N-(Tetrahydropyran-4-yl)-3-(4(1-methyl-1H-pyrazol-4-yl)-benzyl)-8-fluoroindolizine-1-carboxamide] |
| 1.08 µM | COc1ccc(Cc2cc(C(=O)N[C@H]3CCCC[C@@H]3O)n3ncccc23)c(F)c1 [Example 14, N-(cis-1S,2S-2-Hydroxycyclohexyl)-5-(2-fluoro-4-methoxybenzyl)-pyrrolo[1,2-b]pyridazine-7-carboxamide] |
| 0.291 µM | Cn1cc(-c2ccc(Cc3cc(C(=O)NC4CCOCC4O)n4ncccc34)cc2)cn1 (stereo not shown) [Example 39, N-(3-Hydroxytetrahydropyran-4-yl)-5-[4-(1-methyl-1H-pyrazol-4-yl)-benzyl]-pyrrolo[1,2-b]pyridazine-7-carboxamide] |
| 0.094 µM | Cn1cc(-c2ccc(Cc3cc(C(=O)N[C@H]4CCCC[C@@H]4O)n4ncccc34)c(F)c2F)cn1 [Example 36, N-(cis-1S,2S-2-Hydroxycyclohexyl)-5-[2,3-difluoro-4-(1-methyl-1H-pyrazol-4-yl)-benzyl]-pyrrolo[1,2-b]pyridazine-7-carboxamide] |
| 3.65 µM | Cn1cc(-c2ccc(Cc3cc(C(=O)NC4COCCC4O)c4c(F)cccn34)cc2)cn1 (stereo not shown) [Example 51, N-(4-Hydroxytetrahydropyran-3-yl)-3-(4-(1-methyl-1H-pyrazol-4-yl)-benzyl)-8-fluoroindolizine-1-carboxamide] |
| 0.643 µM | O=C(N[C@H]1CCCC[C@@H]1O)c1cc(Cc2ccc(F)c(Br)c2)c2cccnn12 [Example 26, N-(cis-1S,2S-2-Hydroxycyclohexyl)-5-(3-bromo-4-fluorobenzyl)-pyrrolo[1,2-b]pyridazine-7-carboxamide] |
| 1.7 µM | O=C(N[C@H]1CCCC[C@@H]1O)c1cc(Cc2cccc(Br)c2)c2cccnn12 [Example 27, N-(cis-1S,2S-2-Hydroxycyclohexyl)-5-(3-bromobenzyl)-pyrrolo[1,2-b]pyridazine-7-carboxamide] |
| 3.03 µM | COc1cccc(Cc2cc(C(=O)N[C@H]3CCCC[C@@H]3O)n3ncccc23)c1 [Example 6, N-(cis-1S,2S-2-Hydroxycyclohexyl)-5-(3-methoxybenzyl)-pyrrolo[1,2-b]pyridazine-7-carboxamide] |
| 1.51 µM | O=C(N[C@H]1CCCC[C@@H]1O)c1cc(Cc2ccc(F)c(F)c2)c2cccnn12 [Example 15, N-(cis-1S,2S-2-Hydroxycyclohexyl)-5-(3,4-difluorobenzyl)-pyrrolo[1,2-b]pyridazine-7-carboxamide] |

| EC50 | Compound |
| --- | --- |
| 1.65 µM | Cn1cc(-c2cc(Cc3cc(C(=O)N[C@H]4CCCC[C@@H]4O)n4ncccc34)ccn2)cn1 [Example 40, N-(cis-1S,2S-2-Hydroxycyclohexyl)-5-[2-(1-methyl-1H-pyrazol-4-yl)-pyridin-4-ylmethyl]-pyrrolo[1,2-b]pyridazine-7-carboxamide] |
| 10 µM | O=C(N[C@H]1CCCC[C@@H]1O)c1cc(Cc2cccnc2Cl)c2cccnn12 [Example 28, N-(cis-1S,2S-2-Hydroxycyclohexyl)-5-(2-chloropyridin-3-ylmethyl)-pyrrolo[1,2-b]pyridazine-7-carboxamide] |
| 1 µM | Cn1cc(-c2cc(Cc3cc(C(=O)N[C@H]4CCCC[C@@H]4O)n4ncccc34)ccc2F)cn1 [Example 37, N-(cis-1S,2S-2-Hydroxycyclohexyl)-5-[4-fluoro-3-(1-methyl-1H-pyrazol-4-yl)-benzyl]-pyrrolo[1,2-b]pyridazine-7-carboxamide] |
| 1.59 µM | COc1ccc(Cc2cc(C(=O)N[C@H]3CCCC[C@@H]3O)c3c(F)cccn23)cc1 [Example 44, N-(cis-1S,2S-2-Hydroxycyclohexyl)-3-(4-methoxybenzyl)-8-fluoroindolizine-1-carboxamide] |
| 0.599 µM | Cn1cc(-c2ccc(Cc3cc(C(=O)N[C@H]4CCCC[C@@H]4O)n4ncccc34)cn2)cn1 [Example 35, N-(cis-1S,2S-2-Hydroxycyclohexyl)-5-[6-(1-methyl-1H-pyrazol-4-yl)-pyridin-3-ylmethyl]-pyrrolo[1,2-b]pyridazine-7-carboxamide] |
| 2.11 µM | O=C(N[C@H]1CCCC[C@@H]1O)c1cc(Cc2cccc(F)c2F)c2cccnn12 [Example 9, N-(cis-1S,2S-2-Hydroxycyclohexyl)-5-(2,3-difluorobenzyl)-pyrrolo[1,2-b]pyridazine-7-carboxamide] |
| 1.11 µM | COc1ccc(Cc2cc(C(=O)NC3CCOCC3O)c3c(F)cccn23)cc1 (stereo not shown) [Example 47, N-(3-Hydroxytetrahydropyran-4-yl)-3-(4-methoxybenzyl)-8-fluoroindolizine-1-carboxamide] |
| 0.166 µM | Cn1cc(-c2ccc(Cc3cc(C(=O)N[C@H]4CCCC[C@@H]4O)c4c(F)cccn34)cc2)cn1 [Example 48, N-(cis-1S,2S-2-Hydroxycyclohexyl)-5-[4-(1-methyl-1H-pyrazol-4-yl)-benzyl]-8-fluoroindolizine-1-carboxamide] |
| 0.419 µM | O=C(N[C@H]1CCCC[C@@H]1O)c1cc(Cc2cc(Br)ccc2F)c2cccnn12 [Example 2, N-(cis-1S,2S-2-Hydroxycyclohexyl)-5-(5-bromo-2-fluorobenzyl)-pyrrolo[1,2-b]pyridazine-7-carboxamide] |
| 3.72 µM | COc1cccc(Cc2cc(C(=O)N[C@H]3CCCC[C@@H]3O)n3ncccc23)c1F [Example 18, N-(cis-1S,2S-2-Hydroxycyclohexyl)-5-(2-fluoro-3-methoxybenzyl)-pyrrolo[1,2-b]pyridazine-7-carboxamide] |
| 0.779 µM | O=C(N[C@H]1CCCC[C@@H]1O)c1cc(Cc2ccc(F)cc2F)c2cccnn12 [Example 7, N-(cis-1S,2S-2-Hydroxycyclohexyl)-5-(2,4-difluorobenzyl)-pyrrolo[1,2-b]pyridazine-7-carboxamide] |
| 2.29 µM | O=C(N[C@H]1CCCC[C@@H]1O)c1cc(Cc2ccc(Br)c(F)c2F)c2cccnn12 [Example 25, N-(cis-1S,2S-2-Hydroxycyclohexyl)-5-(2,3-difluoro-4-bromobenzyl)-pyrrolo[1,2-b]pyridazine-7-carboxamide] |
| 1.03 µM | O=C(NC1CCOCC1O)c1cc(Cc2ccc(Br)cc2)c2cccnn12 (stereo not shown) [Example 31, N-(3-Hydroxytetrahydropyran-4-yl)-5-(4-bromobenzyl)-pyrrolo[1,2-b]pyridazine-7-carboxamide] |
| 2.06 µM | O=C(N[C@H]1CCCC[C@@H]1O)c1cc(Cc2ccnc(Cl)c2)n2cccc(F)c12 [Example 43, N-(cis-1S,2S-2-Hydroxycyclohexyl)-3-(2-chloropyridine-4-ylmethyl)-8-fluoroindolizine-1-carboxamide] |
| 1.76 µM | O=C(N[C@H]1CCCC[C@@H]1O)c1cc(Cc2ccccc2F)c2cccnn12 [Example 13, N-(cis-1S,2S-2-Hydroxycyclohexyl)-5-(2-fluorobenzyl)-pyrrolo[1,2-b]pyridazine-7-carboxamide] |
